According to publication PMC12892976, “Alkylation-based optimization of antifungal FPPS inhibitors yields a potent, broad-spectrum lipophilic zoledronate derivative” (mBio, 2025):
Converted amounts (≈) assume the structure as drawn.

Assays:
[1] = test system: Trichophyton soudanense; assay: MIC broth microdilution (CLSI); conditions: Trichophyton soudanense R-167
Protocol: (§2) Antifungal susceptibility was determined by broth microdilution according to the CLSI guidelines described in M27-Ed4 ([16]).

[2] = test system: Cryptococcus neoformans biofilms; assay: biofilm XTT reduction assay (SIC80, SFICI); conditions: for SICc: Cryptococcus neoformans; for SIC80: agent alone, Cryptococcus neoformans H99
Protocol: (§3) Biofilms of Cryptococcus were seeded in DMEM, and all other species were seeded in RPMI-1640.

[3] = test system: Trichophyton interdigitale; assay: MIC broth microdilution (CLSI); type: cell-based; conditions: Trichophyton interdigitale R-234
Protocol: as §2

[4] = test system: Cryptococcus tetragattii; assay: checkerboard drug interaction (FICI, MICc); type: cell-based;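 note: simplified diagonal checkerboard screen pairing antifungals with FPPS inhibitors, with FICI calculated under the Loewe additivity model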
Protocol: (§4) Drug interactions between antifungals and FPPS inhibitors were investigated using a simplified checkerboard diagonal screening method ([45]). […] FICIs were determined according to the Loewe additivity model ([17]).

[5] = test system: Candida albicans biofilms; assay: biofilm XTT reduction assay (SIC80, SFICI); conditions: for SICc: Candida albicans; for SIC80: agent alone, Candida albicans SC5314
Protocol: as §3

[6] = test system: Pichia kudriavzevii; assay: checkerboard drug interaction (FICI, MICc); type: cell-based;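 note: antifungal plus FPPS inhibitor interactions tested in a simplified diagonal checkerboard screen, with FICI calculated under the Loewe additivity model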
Protocol: as §4

[7] = test system: Lomentospora prolificans; assay: checkerboard drug interaction (FICI, MICc);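 note: simplified diagonal checkerboard screen pairing antifungals with FPPS inhibitors, FICI calculated under the Loewe additivity model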
Protocol: as §4

[8] = test system: Cryptococcus deuterogattii biofilms; assay: biofilm XTT reduction assay (SIC80, SFICI); conditions: for SICc: Cryptococcus deuterogattii; for SIC80: agent alone, Cryptococcus deuterogattii R265
Protocol: as §3

[9] = test system: Epidermophyton floccosum; assay: checkerboard drug interaction (FICI, MICc);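 note: simplified diagonal checkerboard screen pairing antifungals with FPPS inhibitors, FICI calculated under the Loewe additivity model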
Protocol: as §4

[10] = test system: Aspergillus niger; assay: checkerboard drug interaction (FICI, MICc); type: cell-based;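 note: simplified diagonal checkerboard screen pairing antifungals with FPPS inhibitors, FICI calculated under the Loewe additivity model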
Protocol: as §4

[11] = test system: Trichophyton tonsurans; assay: checkerboard drug interaction (FICI, MICc); type: cell-based;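 note: simplified diagonal checkerboard screen combining antifungals with FPPS inhibitors, with FICI calculated under the Loewe additivity model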
Protocol: as §4

[12] = test system: Nannizzia gypsea; assay: checkerboard drug interaction (FICI, MICc);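 note: simplified diagonal checkerboard screen pairing antifungals with FPPS inhibitors, FICI derived using the Loewe additivity model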
Protocol: as §4

[13] = test system: Aspergillus flavus biofilms; assay: biofilm XTT reduction assay (SIC80, SFICI); type: cell-based; conditions: for SICc: Aspergillus flavus; for SIC80: agent alone, Aspergillus flavus ATCC 204304
From the text: (§1) […]. […] […].

[14] = test system: Aspergillus fumigatus biofilms; assay: biofilm XTT reduction assay (SIC80, SFICI); type: cell-based; conditions: for SICc: Aspergillus fumigatus; for SIC80: agent alone, Aspergillus fumigatus ATCC 204305
From the text: as §1

[15] = test system: Candida glabrata biofilms; assay: biofilm XTT reduction assay (SIC80, SFICI); type: cell-based; conditions: for SICc: Candida glabrata; for SIC80: agent alone, Candida glabrata CBS138
From the text: as §1

[16] = test system: Saccharomyces cerevisiae biofilms; assay: biofilm XTT reduction assay (SIC80, SFICI); type: cell-based; conditions: for SICc: Saccharomyces cerevisiae; for SIC80: agent alone, Saccharomyces cerevisiae S288c
Protocol: as §3

[17] = test system: Fusarium solani; assay: MIC broth microdilution (CLSI); conditions: Fusarium solani 04-16-056-1862
Protocol: as §2

[18] = test system: Trichophyton rubrum biofilms; assay: biofilm XTT reduction assay (SIC80, SFICI); type: cell-based; conditions: biofilm; for SICc: Trichophyton rubrum; for SIC80: agent alone, Trichophyton rubrum 213
Protocol: as §3

[19] = test system: Paraphyton cookei; assay: checkerboard drug interaction (FICI, MICc);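 note: simplified diagonal checkerboard screen pairing an antifungal with an FPPS inhibitor, FICI computed under the Loewe additivity model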
Protocol: as §4

[20] = test system: Cryptococcus deneoformans; assay: MIC broth microdilution (CLSI); type: cell-based; conditions: Cryptococcus deneoformans JEC21
Protocol: as §2

[21] = test system: Mucor circinelloides; assay: MIC broth microdilution (CLSI); type: cell-based; conditions: Mucor circinelloides 80-14-240-5007
Protocol: as §2

[22] = test system: Nannizzia gypsea; assay: MIC broth microdilution (CLSI); type: cell-based; conditions: Nannizzia gypsea R-131
Protocol: as §2

[23] = test system: Candida dubliniensis; assay: MIC broth microdilution (CLSI); type: cell-based; conditions: Candida dubliniensis M230642
Protocol: as §2

[24] = test system: Aspergillus parafelis; assay: MIC broth microdilution (CLSI); type: cell-based; conditions: Aspergillus parafelis DTO 341-F2
Protocol: as §2

[25] = test system: Cryptococcus tetragattii; assay: MIC broth microdilution (CLSI); type: cell-based; conditions: Cryptococcus tetragattii WM779
Protocol: as §2

[26] = test system: Scedosporium apiospermum; assay: checkerboard drug interaction (FICI, MICc); type: cell-based;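 note: simplified diagonal checkerboard screen of antifungal plus FPPS inhibitor pairs, with FICI computed under the Loewe additivity model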
Protocol: as §4

[27] = test system: Aspergillus udagawae; assay: MIC broth microdilution (CLSI); type: cell-based; conditions: Aspergillus udagawae 8G81
Protocol: as §2

[28] = test system: Fusarium solani; assay: checkerboard drug interaction (FICI, MICc); type: cell-based;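 note: simplified diagonal checkerboard screen pairing antifungals with FPPS inhibitors, FICI derived under the Loewe additivity model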
Protocol: as §4

[29] = test system: Candida auris; assay: MIC broth microdilution (CLSI); type: cell-based; conditions: Candida auris CDC-0384
Protocol: as §2

[30] = test system: Aspergillus terreus; assay: checkerboard drug interaction (FICI, MICc); type: cell-based;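 note: simplified diagonal checkerboard screen pairing antifungals with FPPS inhibitors, FICI derived by the Loewe additivity model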
Protocol: as §4

[31] = test system: Candida dubliniensis; assay: checkerboard drug interaction (FICI, MICc); type: cell-based;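 note: simplified diagonal checkerboard screen pairing antifungals with FPPS inhibitors, FICI calculated under the Loewe additivity model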
Protocol: as §4

Q: Which results are given for `CCC(C)n1ncn(-c2ccc(N3CCN(c4ccc(OCC5COC(Cn6cncn6)(c6ccc(Cl)cc6Cl)O5)cc4)CC3)cc2)c1=O` (stereo not drawn) [ITR, itraconazole]?
A: MIC / MEC [1]: 0.5 µg/mL (≈ 0.709 µM); SICc ([2]; ITR:10-ZOL combination): 32 µg/mL; SIC80 [2]: 64 µg/mL; MIC / MEC [3]: 1 µg/mL (≈ 1.42 µM); antifungal MICc ([4]; in combination with 10-ZOL): 0.25; antifungal MICc ([4]; in combination with ZOL): 1; SICc ([5]; ITR:10-ZOL combination): 128 µg/mL; SIC80 [5]: 256 µg/mL; antifungal MICc ([6]; in combination with 10-ZOL): 1; antifungal MICc ([6]; in combination with ZOL): 0.25; antifungal MICc ([7]; in combination with 10-ZOL): 1; antifungal MICc ([7]; in combination with ZOL): 2; SICc ([8]; ITR:10-ZOL combination): 64 µg/mL; SIC80 [8]: 128 µg/mL; antifungal MICc ([9]; in combination with 10-ZOL): 0.5; antifungal MICc ([9]; in combination with ZOL): 0.5; antifungal MICc ([10]; in combination with 10-ZOL): 0.25; antifungal MICc ([10]; in combination with ZOL): 1; antifungal MICc ([11]; in combination with 10-ZOL): 0.25; antifungal MICc ([11]; in combination with ZOL): 0.25; antifungal MICc ([12]; in combination with 10-ZOL): 2; antifungal MICc ([12]; in combination with ZOL): 0.5; SICc ([13]; ITR:10-ZOL combination): 64 µg/mL; SIC80 [13]: 128 µg/mL; SICc ([14]; ITR:10-ZOL combination): 128 µg/mL; SIC80 [14]: 256 µg/mL; SICc ([15]; ITR:10-ZOL combination): 128 µg/mL; SIC80 [15]: 256 µg/mL; SICc ([16]; ITR:10-ZOL combination): 16 µg/mL; SIC80 [16]: 32 µg/mL; MIC / MEC [17]: 2 µg/mL (≈ 2.83 µM); SICc ([18]; ITR:10-ZOL combination): 64 µg/mL; SIC80 [18]: >256 µg/mL; antifungal MICc ([19]; in combination with 10-ZOL): 0.063; antifungal MICc ([19]; in combination with ZOL): 1; MIC / MEC [20]: 0.06 µg/mL (≈ 0.085 µM); MIC / MEC [21]: 0.5 µg/mL (≈ 0.709 µM); MIC / MEC [22]: 2 µg/mL (≈ 2.83 µM); MIC / MEC [23]: 0.13 µg/mL (≈ 0.184 µM); MIC / MEC [24]: 8 µg/mL (≈ 11.3 µM); MIC / MEC [25]: 0.5 µg/mL (≈ 0.709 µM); antifungal MICc ([26]; in combination with 10-ZOL): 4; antifungal MICc ([26]; in combination with ZOL): 4; MIC / MEC [27]: 1 µg/mL (≈ 1.42 µM); antifungal MICc ([28]; in combination with 10-ZOL): 1; antifungal MICc ([28]; in combination with ZOL): 0.5; MIC / MEC [29]: 2 µg/mL (≈ 2.83 µM); antifungal MICc ([30]; in combination with 10-ZOL): 0.25; antifungal MICc ([30]; in combination with ZOL): 0.13; antifungal MICc ([31]; in combination with 10-ZOL): 0.033; antifungal MICc ([31]; in combination with ZOL): 0.03125

Q: What does the source list for `CC(=O)N1CCN(c2ccc(OCC3COC(Cn4ccnc4)(c4ccc(Cl)cc4Cl)O3)cc2)CC1` (stereo not drawn) [KET, ketoconazole]?
A: MIC / MEC [1]: 4 µg/mL (≈ 7.53 µM); SICc ([2]; KET:10-ZOL combination): 16 µg/mL; SIC80 [2]: 32 µg/mL; MIC / MEC [3]: 8 µg/mL (≈ 15.1 µM); antifungal MICc ([4]; in combination with 10-ZOL): 0.125; antifungal MICc ([4]; in combination with ZOL): 0.25; SICc ([5]; KET:10-ZOL combination): 32 µg/mL; SIC80 [5]: 64 µg/mL; antifungal MICc ([6]; in combination with 10-ZOL): 0.25; antifungal MICc ([6]; in combination with ZOL): 0.06; antifungal MICc ([7]; in combination with 10-ZOL): 0.25; antifungal MICc ([7]; in combination with ZOL): 2; SICc ([8]; KET:10-ZOL combination): 32 µg/mL; SIC80 [8]: 256 µg/mL; antifungal MICc ([9]; in combination with 10-ZOL): 1; antifungal MICc ([9]; in combination with ZOL): 0.5; antifungal MICc ([10]; in combination with 10-ZOL): 2; antifungal MICc ([10]; in combination with ZOL): 4; antifungal MICc ([11]; in combination with 10-ZOL): 0.25; antifungal MICc ([11]; in combination with ZOL): 0.5; antifungal MICc ([12]; in combination with 10-ZOL): 2; antifungal MICc ([12]; in combination with ZOL): 1; SICc ([13]; KET:10-ZOL combination): 64 µg/mL; SIC80 [13]: 128 µg/mL; SICc ([14]; KET:10-ZOL combination): 64 µg/mL; SIC80 [14]: 256 µg/mL; SICc ([15]; KET:10-ZOL combination): 64 µg/mL; SIC80 [15]: 256 µg/mL; SICc ([16]; KET:10-ZOL combination): 16 µg/mL; SIC80 [16]: 32 µg/mL; MIC / MEC [17]: 16 µg/mL (≈ 30.1 µM); SICc ([18]; KET:10-ZOL combination): 64 µg/mL; SIC80 [18]: 256 µg/mL; antifungal MICc ([19]; in combination with 10-ZOL): 1; antifungal MICc ([19]; in combination with ZOL): 4; MIC / MEC [20]: 0.13 µg/mL (≈ 0.245 µM); MIC / MEC [21]: 16 µg/mL (≈ 30.1 µM); MIC / MEC [22]: 16 µg/mL (≈ 30.1 µM); MIC / MEC [23]: 0.02 µg/mL (≈ 0.0376 µM); MIC / MEC [24]: >16 µg/mL; MIC / MEC [25]: 0.5 µg/mL (≈ 0.941 µM); antifungal MICc ([26]; in combination with 10-ZOL): 4; antifungal MICc ([26]; in combination with ZOL): 4; MIC / MEC [27]: 8 µg/mL (≈ 15.1 µM); antifungal MICc ([28]; in combination with 10-ZOL): 4; antifungal MICc ([28]; in combination with ZOL): 4; MIC / MEC [29]: 4 µg/mL (≈ 7.53 µM); antifungal MICc ([30]; in combination with 10-ZOL): 2; antifungal MICc ([30]; in combination with ZOL): 0.25; antifungal MICc ([31]; in combination with 10-ZOL): 0.006; antifungal MICc ([31]; in combination with ZOL): 0.005
